In brackets after ≈: the same amount, converted by molar mass. Like-named read-outs stand apart in the source and are kept apart here.
Columns and labels:
Diplodia maydis (Dm) = test: Growth inhibition assay of fungal pathogens, Dm; assay type: cell-based; conditions: Stenocarpella maydis, 48 h
In short: (§1)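 Spores diluted in 17% V8 liquid media and incubated with compound at final 50, 10, 2 ppm or 2, 0.4, 0.08 ppm (2% DMSO). OD600 plus visual ratings at 24 and 48 hours, blank-subtracted; percent growth inhibition from 48 h readings relative to 2% DMSO control.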

[1] = tested on: Phytophthora capsici (Pc); test: Growth inhibition assay of fungal pathogens, Pc; assay type: cell-based; conditions: 48 h
In short: as §1

C. parapsilosis = test: Antifungal Activity Assay (broth microtiter MIC), C. parapsilosis; assay type: cell-based, Candida parapsilosis; conditions: Lodderomyces parapsilosis, ATCC22019, 48 h
In short: (§2)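 MICs were scored by eye at 48 h relative to the growth control. Plates followed CLSI M27-A3, with Candida suspensions in RPMI 1640+MOPS giving a final 2.5×10^3 CFU/mL; the colonies came from Sabouraud agar grown overnight at 35 °C.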

C. albicans = test: Antifungal Activity Assay (broth microtiter MIC), C. albicans; assay type: cell-based, Candida albicans; conditions: Candida albicans, ATCC90028, 48 h
In short: as §2

Botrtyis cinerea (Bc) = test: Growth inhibition assay of fungal pathogens, Bc; assay type: cell-based; conditions: 48 h
In short: as §1

human (hACC2) = human (hACC2) (Homo sapiens, UniProt O00763); test: In vitro ACC inhibition assay (ADP-Glo), hACC2; assay type: biochemical; conditions: 5 nM ACC2, 20 μM ATP, 20 μM acetyl-CoA
Method: The detailed procedure is as follows. […] 10 μL ADP glo reagent was added. […] 20 μL kinase detection reagent was added.

[2] = tested on: Fusarium virguliforme (Fv); test: Growth inhibition assay of fungal pathogens, Fv; assay type: cell-based; conditions: 48 h
In short: as §1

C. krusei = test: Antifungal Activity Assay (broth microtiter MIC), C. krusei; assay type: cell-based, Candida krusei; conditions: Pichia kudriavzevii, ATCC6258, 48 h
In short: as §2

fungal (fACC2) = fungal (fACC2) (UniProt Q00955); conditions: read-out: fACC2 (in vitro ACC2 Inhibition Assay, IC50), ADP-Glo, 5 nM ACC2, 20 μM ATP, 20 μM acetyl-CoA
Method: An exemplary procedure for the in vitro ACC inhibition assay, which can be used to determine the inhibitory action of compounds of the invention toward either human (hACC2) or fungal (fACC2), follows. The ADP-Glo™ Kinase Assay kit from Promega was used. The ADP-Glo™ Kinase Assay is a luminescent ADP detection assay to measure enzymatic activity by quantifying the amount of ADP produced during an enzyme reaction. The assay is performed in two steps; first, after the enzyme reaction, an equal volume of ADP-Glo™ Reagent is added to terminate the reaction and deplete the remaining ATP. Second, the Kinase Detection Reagent is added to simultaneously convert ADP to ATP and allow the newly synthesized ATP to be measured using a luciferase/luciferin reaction. Luminescence can be correlated to ADP concentrations by using an ATP-to-ADP conversion curve. […] 50 μL of the compound being tested (600 μM in DMSO) was added to a 384-well dilution plate. The compound was diluted 1:3 in succession in DMSO for each row for 11 wells. 0.5 μL ACC2 working solution was added to 384-well white Optiplate assay plate. 0.5 μL diluted compound solution in each column from step 2 was added to assay plate, each row containing 2 replicates. […] The plates were incubated at room temperature for 15 minutes. 5 μL substrate working solution was added to each well to initiate reaction. Final ACC2 reaction concentrations consist of: 5 nM ACC2, 20 μM ATP, 20 μM acetyl-CoA, 12 mM NaHCO3, 0.01% Brij35, 2 mM DTT, 5% DMSO, test compound concentrations: 30 μM, 10 μM, 3.33 μM, 1.11 μM, 0.37 μM, 0.123 μM, 0.0411 μM, 0.0137 μM, 0.00457 μM, 0.00152 μM, and 0.00051 μM. Plates were incubated at room temperature for 60 minutes. 10 μL ADP glo reagent was added. Plates were incubated at room temperature for 40 minutes. 20 μL kinase detection reagent was added. Plates were incubated at room temperature for 40 minutes, and then read on a Perkin Elmer EnVision 2104 plate reader for luminescence as Relative Light Units (RLU).
Data for each concentration, as well as the positive and negative controls were averaged, and the standard deviation calculated. Percent inhibition was calculated by the formula: 100×(average negative control−compound)/(average negative control−average positive control). The IC50 for each compound was calculated by fitting the data with a non-linear regression equation: Y=Bottom+(Top−Bottom)/(1+10 ((Log IC50−X)*HillSlope)), where X is the log of compound concentration and Y is percent inhibition.

Rhizoctonia solani (Rs) = test: Growth inhibition assay of fungal pathogens, Rs; assay type: cell-based; conditions: 48 h
[3] = read-out: Concentration at 90% Inhibition Dm, Diplodia maydis, growth inhibition at 48 hours vs 2% DMSO control
[4] = read-out: Concentration at 90% Inhibition Dm, Diplodia maydis, growth inhibition vs 2% DMSO control at 48 hours
[5] = read-out: Concentration at 90% Inhibition Pc, Phytophthora capsici, growth inhibition at 48 hours vs 2% DMSO control
[6] = read-out: Concentration at 90% Inhibition Pc, Phytophthora capsici, growth inhibition vs 2% DMSO control at 48 hours
[7] = read-out: MIC, C. parapsilosis ATCC 22019, Table 3a, 3 replicates, MIC recorded at 48 h
[8] = read-out: MIC, C. parapsilosis ATCC 22019, Table 3b (additional results), 3 replicates, MIC recorded at 48 h
[9] = read-out: MIC, C. albicans ATCC 90028, Table 3a, 3 replicates, MIC recorded at 48 h
[10] = read-out: MIC, C. albicans ATCC 90028, Table 3b (additional results), 3 replicates, MIC recorded at 48 h
[11] = read-out: Concentration at 90% Inhibition Bc, Botrtyis cinerea, growth inhibition at 48 hours vs 2% DMSO control
[12] = read-out: Concentration at 90% Inhibition Bc, Botrtyis cinerea, growth inhibition vs 2% DMSO control at 48 hours
[13] = read-out: Concentration at 90% Inhibition Fv, Fusarium virguliforme, growth inhibition at 48 hours vs 2% DMSO control
[14] = read-out: Concentration at 90% Inhibition Fv, Fusarium virguliforme, growth inhibition vs 2% DMSO control at 48 hours
[15] = read-out: MIC, C. krusei ATCC 6258, Table 3a, 3 replicates, MIC recorded at 48 h
[16] = read-out: MIC, C. krusei ATCC 6258, Table 3b (additional results), 3 replicates, MIC recorded at 48 h
[17] = read-out: Concentration at 90% Inhibition Rs, Rhizoctonia solani, mycelial plugs, growth inhibition at 48 hours vs 2% DMSO control
[18] = read-out: Concentration at 90% Inhibition Rs, Rhizoctonia solani, mycelial plugs, growth inhibition vs 2% DMSO control at 48 hours
[19] = Diplodia maydis, growth inhibition at 48 hours vs 2% DMSO control, read-out: Concentration at 90% Inhibition Dm
[20] = Diplodia maydis, growth inhibition vs 2% DMSO control at 48 hours, read-out: Concentration at 90% Inhibition Dm
[21] = growth inhibition at 48 hours vs 2% DMSO control, read-out: Concentration at 90% Inhibition Pc
[22] = growth inhibition vs 2% DMSO control at 48 hours, read-out: Concentration at 90% Inhibition Pc
[23] = Table 3a, ATCC 22019, 3 replicates, MIC recorded at 48 h, read-out: MIC, C. parapsilosis ATCC 22019
[24] = Table 3b (additional results), ATCC 22019, 3 replicates, MIC recorded at 48 h, read-out: MIC, C. parapsilosis ATCC 22019
[25] = Table 3a, ATCC 90028, 3 replicates, MIC recorded at 48 h, read-out: MIC, C. albicans ATCC 90028
[26] = Table 3b (additional results), ATCC 90028, 3 replicates, MIC recorded at 48 h, read-out: MIC, C. albicans ATCC 90028
[27] = Botrtyis cinerea, growth inhibition at 48 hours vs 2% DMSO control, read-out: Concentration at 90% Inhibition Bc
[28] = Botrtyis cinerea, growth inhibition vs 2% DMSO control at 48 hours, read-out: Concentration at 90% Inhibition Bc
[29] = growth inhibition at 48 hours vs 2% DMSO control, read-out: Concentration at 90% Inhibition Fv
[30] = growth inhibition vs 2% DMSO control at 48 hours, read-out: Concentration at 90% Inhibition Fv
[31] = Table 3a, ATCC 6258, 3 replicates, MIC recorded at 48 h, read-out: MIC, C. krusei ATCC 6258
[32] = Table 3b (additional results), ATCC 6258, 3 replicates, MIC recorded at 48 h, read-out: MIC, C. krusei ATCC 6258
[33] = mycelial plugs, growth inhibition at 48 hours vs 2% DMSO control, read-out: Concentration at 90% Inhibition Rs
[34] = mycelial plugs, growth inhibition vs 2% DMSO control at 48 hours, read-out: Concentration at 90% Inhibition Rs

human (hACC2), sequence (O00763 whole entry): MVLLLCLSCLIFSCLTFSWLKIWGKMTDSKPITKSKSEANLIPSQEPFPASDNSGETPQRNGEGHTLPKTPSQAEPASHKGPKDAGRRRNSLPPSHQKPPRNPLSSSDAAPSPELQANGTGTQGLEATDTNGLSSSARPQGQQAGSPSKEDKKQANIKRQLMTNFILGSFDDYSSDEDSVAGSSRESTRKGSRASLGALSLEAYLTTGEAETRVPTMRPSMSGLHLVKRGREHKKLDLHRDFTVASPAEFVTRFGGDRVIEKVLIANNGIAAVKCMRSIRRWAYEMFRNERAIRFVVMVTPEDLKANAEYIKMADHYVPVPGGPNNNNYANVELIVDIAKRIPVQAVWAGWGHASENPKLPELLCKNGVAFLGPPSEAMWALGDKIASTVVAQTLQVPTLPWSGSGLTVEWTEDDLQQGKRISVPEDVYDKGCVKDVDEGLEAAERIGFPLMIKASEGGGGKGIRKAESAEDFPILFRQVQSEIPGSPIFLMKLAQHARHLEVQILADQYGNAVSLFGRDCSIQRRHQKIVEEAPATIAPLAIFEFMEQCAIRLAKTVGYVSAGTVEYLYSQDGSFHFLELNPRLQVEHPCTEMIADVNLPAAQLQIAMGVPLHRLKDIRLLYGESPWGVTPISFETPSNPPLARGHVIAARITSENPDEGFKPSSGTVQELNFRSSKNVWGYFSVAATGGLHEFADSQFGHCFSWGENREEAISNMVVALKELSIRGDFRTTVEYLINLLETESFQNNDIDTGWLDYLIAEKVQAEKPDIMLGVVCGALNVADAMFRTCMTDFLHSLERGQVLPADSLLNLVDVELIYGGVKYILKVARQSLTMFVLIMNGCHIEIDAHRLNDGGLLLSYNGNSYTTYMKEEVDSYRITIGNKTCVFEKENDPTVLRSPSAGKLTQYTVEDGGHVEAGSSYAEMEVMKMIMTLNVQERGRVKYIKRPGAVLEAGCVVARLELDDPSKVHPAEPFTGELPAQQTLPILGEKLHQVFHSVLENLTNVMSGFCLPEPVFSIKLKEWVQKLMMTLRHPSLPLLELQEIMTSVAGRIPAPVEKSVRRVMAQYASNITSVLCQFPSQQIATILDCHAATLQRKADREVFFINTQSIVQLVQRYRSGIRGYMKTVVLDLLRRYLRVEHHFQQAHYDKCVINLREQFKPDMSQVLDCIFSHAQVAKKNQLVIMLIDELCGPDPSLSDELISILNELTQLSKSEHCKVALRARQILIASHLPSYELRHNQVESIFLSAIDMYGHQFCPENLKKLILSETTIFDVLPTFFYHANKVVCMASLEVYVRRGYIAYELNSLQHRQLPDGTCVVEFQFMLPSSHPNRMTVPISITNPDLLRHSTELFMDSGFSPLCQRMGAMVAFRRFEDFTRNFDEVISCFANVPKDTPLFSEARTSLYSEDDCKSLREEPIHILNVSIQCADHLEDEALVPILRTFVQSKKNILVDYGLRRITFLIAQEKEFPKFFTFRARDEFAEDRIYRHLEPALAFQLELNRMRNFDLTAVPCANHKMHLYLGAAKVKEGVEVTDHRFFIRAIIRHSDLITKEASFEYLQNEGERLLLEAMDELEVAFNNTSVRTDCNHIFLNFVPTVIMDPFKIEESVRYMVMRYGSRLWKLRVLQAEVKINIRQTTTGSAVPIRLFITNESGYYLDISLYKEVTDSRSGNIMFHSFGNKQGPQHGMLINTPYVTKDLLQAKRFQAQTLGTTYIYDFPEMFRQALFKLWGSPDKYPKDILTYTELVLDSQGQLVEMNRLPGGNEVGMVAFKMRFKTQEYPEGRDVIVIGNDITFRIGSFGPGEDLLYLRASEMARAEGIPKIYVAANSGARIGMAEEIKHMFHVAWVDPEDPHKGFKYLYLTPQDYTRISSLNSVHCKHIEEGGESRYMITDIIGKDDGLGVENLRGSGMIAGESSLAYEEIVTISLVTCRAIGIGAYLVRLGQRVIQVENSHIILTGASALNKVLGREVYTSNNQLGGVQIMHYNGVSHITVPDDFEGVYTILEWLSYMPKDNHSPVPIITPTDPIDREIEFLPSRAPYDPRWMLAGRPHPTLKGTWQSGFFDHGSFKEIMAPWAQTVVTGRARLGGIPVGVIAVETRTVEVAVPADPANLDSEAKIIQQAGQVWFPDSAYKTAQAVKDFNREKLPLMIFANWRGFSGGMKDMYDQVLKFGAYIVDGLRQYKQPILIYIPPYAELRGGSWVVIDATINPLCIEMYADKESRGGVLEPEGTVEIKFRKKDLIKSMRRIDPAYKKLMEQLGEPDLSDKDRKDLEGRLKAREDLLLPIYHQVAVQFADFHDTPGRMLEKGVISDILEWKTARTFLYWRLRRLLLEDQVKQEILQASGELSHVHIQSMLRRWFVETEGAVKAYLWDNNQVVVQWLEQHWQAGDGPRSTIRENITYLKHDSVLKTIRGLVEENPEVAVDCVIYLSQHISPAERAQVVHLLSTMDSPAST
fungal (fACC2), sequence (Q00955 whole entry): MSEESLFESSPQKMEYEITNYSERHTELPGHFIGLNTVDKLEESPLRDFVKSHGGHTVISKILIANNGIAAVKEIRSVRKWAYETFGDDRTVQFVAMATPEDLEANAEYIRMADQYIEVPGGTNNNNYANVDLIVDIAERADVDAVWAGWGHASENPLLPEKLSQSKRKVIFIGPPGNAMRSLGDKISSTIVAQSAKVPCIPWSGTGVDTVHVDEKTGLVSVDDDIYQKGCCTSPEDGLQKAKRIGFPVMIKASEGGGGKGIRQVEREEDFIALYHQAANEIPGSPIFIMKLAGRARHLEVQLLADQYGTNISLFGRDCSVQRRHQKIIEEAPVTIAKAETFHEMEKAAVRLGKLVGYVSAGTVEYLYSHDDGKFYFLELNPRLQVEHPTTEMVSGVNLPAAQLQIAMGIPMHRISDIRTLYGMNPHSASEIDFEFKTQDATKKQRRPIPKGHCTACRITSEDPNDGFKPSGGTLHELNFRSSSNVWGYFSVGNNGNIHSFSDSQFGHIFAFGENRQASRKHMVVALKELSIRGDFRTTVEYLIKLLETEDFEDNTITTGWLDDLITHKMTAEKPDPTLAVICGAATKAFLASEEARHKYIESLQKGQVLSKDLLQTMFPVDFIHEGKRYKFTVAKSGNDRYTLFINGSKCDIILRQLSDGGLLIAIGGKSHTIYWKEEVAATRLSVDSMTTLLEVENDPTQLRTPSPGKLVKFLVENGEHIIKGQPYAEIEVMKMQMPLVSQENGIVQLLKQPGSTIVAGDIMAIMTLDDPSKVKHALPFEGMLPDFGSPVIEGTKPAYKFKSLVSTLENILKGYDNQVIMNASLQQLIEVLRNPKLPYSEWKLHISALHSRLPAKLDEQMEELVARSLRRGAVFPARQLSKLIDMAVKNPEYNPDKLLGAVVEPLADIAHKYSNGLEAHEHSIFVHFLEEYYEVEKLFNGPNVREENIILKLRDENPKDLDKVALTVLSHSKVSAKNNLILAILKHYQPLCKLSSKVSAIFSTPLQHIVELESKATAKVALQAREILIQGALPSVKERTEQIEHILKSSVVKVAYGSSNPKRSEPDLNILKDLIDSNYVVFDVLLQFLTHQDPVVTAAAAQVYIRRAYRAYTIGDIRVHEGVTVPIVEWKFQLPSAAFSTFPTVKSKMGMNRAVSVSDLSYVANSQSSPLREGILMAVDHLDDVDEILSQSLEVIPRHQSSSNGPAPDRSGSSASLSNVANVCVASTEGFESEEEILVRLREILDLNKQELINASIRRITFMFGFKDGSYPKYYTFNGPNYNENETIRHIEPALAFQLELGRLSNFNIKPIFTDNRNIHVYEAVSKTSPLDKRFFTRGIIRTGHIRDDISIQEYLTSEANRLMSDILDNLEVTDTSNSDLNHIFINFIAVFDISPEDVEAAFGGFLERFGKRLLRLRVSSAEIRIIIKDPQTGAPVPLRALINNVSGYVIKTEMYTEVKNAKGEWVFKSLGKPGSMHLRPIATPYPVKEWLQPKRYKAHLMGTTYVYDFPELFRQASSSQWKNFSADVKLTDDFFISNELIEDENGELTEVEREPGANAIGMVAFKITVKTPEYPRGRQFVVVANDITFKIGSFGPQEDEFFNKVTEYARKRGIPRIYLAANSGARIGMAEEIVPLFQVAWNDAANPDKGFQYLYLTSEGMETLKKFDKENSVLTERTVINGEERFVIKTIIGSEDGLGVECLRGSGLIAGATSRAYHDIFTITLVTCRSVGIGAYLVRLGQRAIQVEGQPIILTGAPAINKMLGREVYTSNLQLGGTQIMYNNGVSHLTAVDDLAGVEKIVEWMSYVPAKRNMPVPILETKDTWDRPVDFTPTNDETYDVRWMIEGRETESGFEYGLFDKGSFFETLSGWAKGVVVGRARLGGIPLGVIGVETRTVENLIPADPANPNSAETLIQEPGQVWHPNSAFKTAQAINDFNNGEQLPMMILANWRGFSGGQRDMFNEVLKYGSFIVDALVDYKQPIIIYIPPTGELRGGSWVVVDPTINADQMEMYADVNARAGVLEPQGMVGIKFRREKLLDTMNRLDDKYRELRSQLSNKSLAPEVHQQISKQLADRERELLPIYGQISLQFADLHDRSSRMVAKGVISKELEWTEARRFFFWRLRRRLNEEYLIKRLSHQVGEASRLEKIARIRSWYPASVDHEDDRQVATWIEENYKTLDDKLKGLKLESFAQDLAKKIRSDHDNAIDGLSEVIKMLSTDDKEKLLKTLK

Row | SMILES | IC90 (Diplodia maydis (Dm); [3]) [µg/mL] | IC90 (Diplodia maydis (Dm); [4]) [µg/mL] | IC90 [1, 5] [µg/mL] | IC90 [1, 6] [µg/mL] | MIC (C. parapsilosis; [7]) [µg/mL] | MIC (C. parapsilosis; [8]) [µg/mL] | MIC (C. albicans; [9]) [µg/mL] | MIC (C. albicans; [10]) [µg/mL] | IC90 (Botrtyis cinerea (Bc); [11]) [µg/mL] | IC90 (Botrtyis cinerea (Bc); [12]) [µg/mL] | IC50 (human (hACC2); Table 2a) [nM] | IC50 (human (hACC2); Table 2b, additional results) [nM] | IC90 [2, 13] [µg/mL] | IC90 [2, 14] [µg/mL] | MIC (C. krusei; [15]) [µg/mL] | MIC (C. krusei; [16]) [µg/mL] | IC50 (fungal (fACC2); Table 2a) [nM] | IC50 (fungal (fACC2); Table 2b, additional results) [nM] | IC90 (Rhizoctonia solani (Rs); [17]) [µg/mL] | IC90 (Rhizoctonia solani (Rs); [18]) [µg/mL] | further results
1 | COCCO[C@@H](Cn1c(=O)n(CC(=O)NC(C)C)c(=O)c2c(C)c(-n3nccn3)sc21)c1cc(F)ccc1OC [Compound I-80, (R)-2-(1-(2-(5-fluoro-2-methoxyphenyl)-2-(2-methoxy-ethoxy)ethyl)-5-methyl-2,4-dioxo-6-(2H-1,2,3-triazol-2-yl)-1,4-dihydro-thieno[2,3-d]pyrimidin-3(2H)-yl)-N-isopropylacetamide] | > 50 | > 50 | > 50 | > 50 | 2.1 to 4 (≈ 3.65 to 6.96 µM) | 2.01 to 4 (≈ 3.5 to 6.96 µM) | 2.1 to 4 (≈ 3.65 to 6.96 µM) | > 4.01 | > 50 | > 50 | > 40 | > 40 | 2 (≈ 3.48 µM) | 10 (≈ 17.4 µM) | 2.1 to 4 (≈ 3.65 to 6.96 µM) | > 4.01 | 1 to 5 | 1 to 5 | 10 (≈ 17.4 µM) | > 50 | 
2 | COc1ccc(F)cc1[C@H](Cn1c(=O)n(CC(=O)N2CCCC2)c(=O)c2c(C)c(-n3nccn3)sc21)OCCO [Compound I-81, (R)-1-(2-(5-fluoro-2-methoxyphenyl)-2-(2-hydroxy-ethoxy)ethyl)-5-methyl-3-(2-oxo-2-(pyrrolidin-1-yl)ethyl)-6-(2H-1,2,3-triazol-2-yl)thieno[2,3-d]pyrimidine-2,4(1H,3H)-dione] |  |  |  |  |  |  |  |  |  |  | 5 to 10 | 5 to 10 |  |  |  |  | 1 to 5 | 1 to 5 |  |  | IC90 (Diplodia maydis (Dm); [19]): 2 µg/mL (≈ 3.49 µM); IC90 (Diplodia maydis (Dm); [20]): 2 µg/mL (≈ 3.49 µM); IC90 [1, 21]: > 50 µg/mL; IC90 [1, 22]: > 50 µg/mL; MIC (C. parapsilosis; [23]): 2.1 to 4 µg/mL (≈ 3.67 to 6.99 µM); MIC (C. parapsilosis; [24]): 2.01 to 4 µg/mL (≈ 3.51 to 6.99 µM); MIC (C. albicans; [25]): 2.1 to 4 µg/mL (≈ 3.67 to 6.99 µM); MIC (C. albicans; [26]): 2.01 to 4 µg/mL (≈ 3.51 to 6.99 µM); IC90 (Botrtyis cinerea (Bc); [27]): 0.08 µg/mL (≈ 0.14 µM); IC90 (Botrtyis cinerea (Bc); [28]): 0.08 µg/mL (≈ 0.14 µM); IC90 [2, 29]: 0.4 µg/mL (≈ 0.699 µM); IC90 [2, 30]: 0.4 µg/mL (≈ 0.699 µM); MIC (C. krusei; [31]): 2.1 to 4 µg/mL (≈ 3.67 to 6.99 µM); MIC (C. krusei; [32]): > 4.01 µg/mL; IC90 (Rhizoctonia solani (Rs); [33]): 0.08 µg/mL (≈ 0.14 µM); IC90 (Rhizoctonia solani (Rs); [34]): 0.08 µg/mL (≈ 0.14 µM)
3 | COc1ccc(F)cc1[C@H](Cn1c(=O)n(CC(=O)NC(C)C)c(=O)c2c(C)c(-n3nccn3)sc21)OCCO [Compound I-82, (R)-2-(1-(2-(5-fluoro-2-methoxyphenyl)-2-(2-hydroxy-ethoxy)ethyl)-5-methyl-2,4-dioxo-6-(2H-1,2,3-triazol-2-yl)-1,4-dihydro-thieno[2,3-d]pyrimidin-3(2H)-yl)-N-isopropylacetamide] | > 50 | > 50 | > 50 | > 50 | 2.1 to 4 (≈ 3.75 to 7.14 µM) | 2.01 to 4 (≈ 3.59 to 7.14 µM) | 2.1 to 4 (≈ 3.75 to 7.14 µM) | 2.01 to 4 (≈ 3.59 to 7.14 µM) | 2 (≈ 3.57 µM) | 2 (≈ 3.57 µM) | 1 to 5 | 1 to 5 | 2 (≈ 3.57 µM) | 2 (≈ 3.57 µM) | 2.1 to 4 (≈ 3.75 to 7.14 µM) | 2.01 to 4 (≈ 3.59 to 7.14 µM) | 1 to 5 | 1 to 5 | 2 (≈ 3.57 µM) | 2 (≈ 3.57 µM) | 
4 | COc1ccc(F)cc1[C@H](Cn1c(=O)n([C@H](C)C(=O)NC2CCC2)c(=O)c2c(C)c(-n3nccn3)sc21)OCCO [Compound I-84, (R)—N-cyclobutyl-2-(1-((R)-2-(5-fluoro-2-methoxyphenyl)-2-(2-hydroxyethoxy)ethyl)-5-methyl-2,4-dioxo-6-(2H-1,2,3-triazol-2-yl)-1,4-dihydrothieno[2,3-d]pyrimidin-3(2H)-yl)propanamide] |  |  |  |  |  |  |  |  |  |  | 5 to 10 | 5 to 10 |  |  |  |  | 0.4 to 1 | 0.3 to 1 |  |  | IC90 (Diplodia maydis (Dm); [19]): 0.4 µg/mL (≈ 0.682 µM); IC90 (Diplodia maydis (Dm); [20]): 0.4 µg/mL (≈ 0.682 µM); IC90 [1, 21]: 2 µg/mL (≈ 3.41 µM); IC90 [1, 22]: 2 µg/mL (≈ 3.41 µM); MIC (C. parapsilosis; [23]): 0.25 to 1 µg/mL (≈ 0.426 to 1.7 µM); MIC (C. parapsilosis; [24]): 0.25 to 1 µg/mL (≈ 0.426 to 1.7 µM); MIC (C. albicans; [25]): 1.1 to 2 µg/mL (≈ 1.88 to 3.41 µM); MIC (C. albicans; [26]): 2.01 to 4 µg/mL (≈ 3.43 to 6.82 µM); IC90 (Botrtyis cinerea (Bc); [27]): 0.4 µg/mL (≈ 0.682 µM); IC90 (Botrtyis cinerea (Bc); [28]): 0.4 µg/mL (≈ 0.682 µM); IC90 [2, 29]: 0.4 µg/mL (≈ 0.682 µM); IC90 [2, 30]: 0.4 µg/mL (≈ 0.682 µM); MIC (C. krusei; [31]): 0.25 to 1 µg/mL (≈ 0.426 to 1.7 µM); MIC (C. krusei; [32]): 0.25 to 1 µg/mL (≈ 0.426 to 1.7 µM); IC90 (Rhizoctonia solani (Rs); [33]): 0.08 µg/mL (≈ 0.136 µM); IC90 (Rhizoctonia solani (Rs); [34]): 0.08 µg/mL (≈ 0.136 µM)

Reference: patent publication US10800791B2, “Triazole ACC inhibitors and uses thereof” (Gilead Apollo, LLC, priority 2015, dated 2020)
